The values that follow come from PMC10878246, “Crystal structure and biochemical activity of the macrodomain from rubella virus p150” (Journal of virology, 2024).

In the experiment the target is T1, RuV macrodomain (macrodomain from rubella virus p150) (Rubella virus, UniProt G3M8F4).
T1 construct: gene NSP; macrodomain, p150 residues 805-983 (p150 is cut from nonstructural polyprotein p200); pET24a, C-terminal His6 tag, no tag cleavage described; E. coli BL21(DE3)
Nature of the experiment: isothermal titration calorimetry. The class given is binding. The note with it: 20 mM HEPES pH 8, 0.15 M NaCl, 25 °C; 1:1 single-site; crystal structure by soaking with 2 mM ADP-ribose. (ITC needs no label: the signal is the heat of the interaction.)

`Nc1ncnc2c1ncn2[C@@H]1O[C@H](COP(=O)(O)OP(=O)(O)OC[C@H]2OC(O)[C@H](O)[C@@H]2O)[C@@H](O)[C@H]1O` (stereo partly shown) [ADP-ribose]: the Kd was determined as 58.1 ± 5.4 µM.

As usually defined, the Kd is the equilibrium constant for the complex coming apart. Lower therefore signals tighter binding.
